The target of assay [1] is T1, Endothelin A receptor (Rattus norvegicus, UniProt P26684).
T1 construct: A membrane preparation is prepared from the heart (ventricles) of a rat; from tissue; host or cells: rat heart ventricles, membrane preparation
T1 sequence (P26684 21-426): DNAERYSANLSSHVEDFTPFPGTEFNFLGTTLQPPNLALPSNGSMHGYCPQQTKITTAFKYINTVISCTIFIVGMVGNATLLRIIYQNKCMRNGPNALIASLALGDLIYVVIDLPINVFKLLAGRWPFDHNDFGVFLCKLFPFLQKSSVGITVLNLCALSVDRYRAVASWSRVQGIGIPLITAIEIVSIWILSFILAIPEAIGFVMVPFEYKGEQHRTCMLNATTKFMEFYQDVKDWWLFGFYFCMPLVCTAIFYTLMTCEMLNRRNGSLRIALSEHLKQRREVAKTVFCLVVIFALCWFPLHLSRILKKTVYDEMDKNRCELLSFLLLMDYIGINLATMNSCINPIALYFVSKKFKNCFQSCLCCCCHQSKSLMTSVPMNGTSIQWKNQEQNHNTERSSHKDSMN
The assay can be described thus: Affinity for the Endothelin A receptor: displacement of 125I endothelin from rat heart (ventricles) membrane preparation. Format: binding. Conditions: rat heart (ventricles) membranes, 25° C. for 60 minutes, pH 7.4, read-out: Endothelin A receptor IC50 in nanomoles. The method, then: 1) Study of the Affinity for the Endothelin A Receptor
A membrane preparation is prepared from the heart (ventricles) of a rat. The tissue is ground up in a POLYTRON in a 50 mM Tris buffer pH=7.4.
After 30 minutes at 25° C. (W.B.) the homogenate is centrifuged at 30,000 g for 15 minutes (2 centrifugations with intermediate take-up in the Tris buffer pH. 7.4).
The pellets are suspended in an incubation buffer (25 mM Tris, 5 microg/ml pepstatin A, 3 microg/ml aprotinin, 0.1 mM PMSF, 3 mM EDTA, 1 mM EGTA pH 7.4).
2 ml aliquoted fractions are distributed in hemolysis tubes and ^125 I endothelin (approximately 50,000 dpm/tube) and the product to be studied are added. (The product is first tested at 3×10^-5 M three times). When the tested product displaces more than 50% of radioactivity specifically bound to the receptor, it is tested again according to a range of 7 concentrations in order to determine the concentration which inhibits by 50% the radioactivity specifically bound to the receptor. In this way the 50% inhibitory concentration is determined.
(§1) The non-specific bond is determined by the addition of endothelin at 10^-6 M (three times). After incubation at 25° C. for 60 minutes, replacing in a water-bath at 0° C. for 5 minutes, filtration under reduced pressure and rinsing with Tris buffer pH 7.4, the radioactivity is counted in the presence of scintillating Triton. […]
In general terms: Displacement assays read how much labelled ligand stays bound in the presence of the test substance.

Assay [2] concerns the target T2, Endothelin B receptor (Rattus norvegicus, UniProt P21451).
T2 construct: A membrane preparation is prepared from the rear cortex plus the cerebellum of a rat; from tissue; host or cells: rat rear cortex plus cerebellum, membrane preparation
T2 sequence (P21451 27-442): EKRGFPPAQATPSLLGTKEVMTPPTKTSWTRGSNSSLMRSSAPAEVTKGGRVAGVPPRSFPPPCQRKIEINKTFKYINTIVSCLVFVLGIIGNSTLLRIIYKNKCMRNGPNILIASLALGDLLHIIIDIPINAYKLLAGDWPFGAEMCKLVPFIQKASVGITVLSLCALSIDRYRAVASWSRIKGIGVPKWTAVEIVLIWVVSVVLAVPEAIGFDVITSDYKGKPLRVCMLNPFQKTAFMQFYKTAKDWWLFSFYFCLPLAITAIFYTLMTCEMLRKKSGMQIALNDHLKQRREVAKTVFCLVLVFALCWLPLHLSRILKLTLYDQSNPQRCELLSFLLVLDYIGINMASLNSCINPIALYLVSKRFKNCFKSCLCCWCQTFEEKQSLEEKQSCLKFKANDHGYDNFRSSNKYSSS
The assay can be described thus: Affinity for the Endothelin B receptor: displacement of 125I endothelin from rat cortex plus cerebellum membrane preparation. Format: binding. The note with it: rat rear cortex plus cerebellum membranes, 25° C. for 60 minutes, pH 7.4, read-out: Endothelin B receptor IC50 in nanomoles. The method, then: 2) Study of the Affinity for the Endothelin B Receptor
A membrane preparation is prepared from the rear cortex plus the cerebellum of a rat. The tissue is ground up in a POLYTRON in a 50 mM Tris buffer pH=7.4.
After 30 minutes at 250C (W.B.) the homogenate is centrifuged at 30,000 g for 15 minutes (2 centrifugations with intermediate take-up in the Tris buffer pH. 7.4).
The pellets are suspended in an incubation buffer (25 mM Tris, 5 microg/ml pepstatin A, 3 microg/ml aprotinin, 0.1 mM PMSF, 3mM EDTA, 1 mM EGTA pH 7.4).
2 ml aliquoted fractions are distributed in hemolysis tubes and 125I endothelin (approximately 50,000 dpm/tube) and the product to be studied are added. (The product is first tested at 3×10^-5 M three times). When the tested product displaces more than 50% of the radioactivity specifically bound to the receptor, it is tested again according to a range of 7 concentrations in order to determine the concentration which inhibits by 50% the radioactivity specifically bound to the receptor. In this way the 50% inhibitory concentration is determined.
as §1

Assay [3] deals with Endothelin. The assay can be described thus: Antagonistic activity of endothelin in a demedullated rat (inhibition of increase in arterial pressure induced by endothelin). Conditions: product 10 mg/kg injected (pudendal vein) 10 minutes before endothelin. Format: in vivo, Male Sprague-Dawley rats. The method, then:
3) Test for Antagonistic Activity of Endothelin in a Demedullated Rat
Male Sprague-Dawley rats (250 to 350 g) are anaesthetized (sodium pentobarbital 60 mg/kg injected by intraperitoneal route). The animal is placed under assisted respiration and a bilateral section of the vagus nerves is carried out. The rat is then demedullated.
The average arterial pressure is recorded with a heparin catheter (PE50) introduced into the carotid of the animal and connected via a pressure sensor and an amplifier to a recorder (Gould pressure processor). A catheter is implanted in the pudendal vein in order to allow injection of the molecules to be studied. After a stabilization period (about 15 minutes), the product or the solvent is injected 10 minutes before a range of increasing doses of endothelin which are injected every 2 minutes (0.1-0.3-1-3-10 ug/kg).
The antagonistic activity of the products is estimated by the percentage inhibition of the increase in pressure induced by endothelin at doses of 3 and 10 ug/kg.

As a reminder, the IC50 is the midpoint of a concentration-inhibition curve. For the compound `CC(C)c1nc(Sc2ccc(CCC(=O)O)cc2)c(C(=O)O)n1Cc1cc2c(cc1Cl)OCO2` [Example 3, 4-((4-(2-carboxyethyl)phenyl)thio)-1-((6-chloro-1,3-benzodioxol-5-yl)methyl)-2-(1-methylethyl)-1H-imidazole-5-carboxylic acid], the IC50 was determined as 2.5 nM in assay [1] and 78.4 nM in assay [2]. The “% inhibition of vasoconstriction Et1 3 μg/kg” value in assay [3] is “+7%”. In assay [3], the “% inhibition of vasoconstriction Et1 10 μg/kg” value is -31%.

In the case of `CCCc1nc(Sc2ccc(OCC(=O)O)cc2)c(C(=O)O)n1Cc1cc2c(cc1Cl)OCO2` [Example 1, 4-((4-(carboxymethoxy)phenyl)thio)-1-((6-chloro-1,3-benzodioxol5-yl)methyl)2-propyl1H-imidazole5-carboxylic acid], the IC50 in assay [1] turned out to be 2.5 nM. Also, in assay [2], the half-maximal inhibitory concentration (IC50) is 88.5 nM. Also, in assay [3], the “% inhibition of vasoconstriction Et1 3 μg/kg” value is listed as -52% and the “% inhibition of vasoconstriction Et1 10 μg/kg” value is -50%.

These data come from patent US5986103A, “2-alkyl-1H-imidazole-5-carboxylic acids” (Hoechst Marion Roussel, priority 1995, dated 1999).
